Laboratory results: a melting point compilation (Tetko et al.)

First: O=S(=O)(n1ccnc1)C(F)(F)F
Second: O=c1[nH]cc(C(F)(F)F)cc1[N+](=O)[O-]
The melting point of the first is lower: 19 to 21 °C for the first, 189 to 190 °C for the second.

Compared with `CCOC(=O)Cc1cccc2ccccc12`, `Cc1nccc2ccccc12` is lower in melting point: 88.5 °C for the first, 10 °C for the second.

First: OC1COC(O)C(O)C1O (stereo not given)
Second: OCC1(O)OCC(O)C(O)C1O (stereo not given)
The melting point of the first is higher: 152 to 160 °C for the first, 119 °C for the second.

First: C=COC(C)(C)C
Second: CC(C)C[C@@H](CC#N)NC(=O)OC(C)(C)C
The melting point of the first is lower: -112 °C for the first, 75 to 77 °C for the second.

Compared with `O=Cc1cccc2c(Br)cccc12`, `N#Cc1ccc(N)c2ccccc12` is higher in melting point: 105 °C for the first, 176 °C for the second.

First: Cc1ccc(/C=C(\C#N)c2nc(-c3ccccc3)cs2)cc1
Second: CN(C)c1ccc(C=Cc2nc3ccccc3s2)cc1
The melting point of the first is lower: 78 to 80 °C for the first, 210 °C for the second.

First: CC(C)(C)N(NC(=O)c1ccccc1)C(=O)c1ccc(C#N)cc1
Second: Nc1ccc(C(=O)c2ccccc2)cc1N
The melting point of the first is higher: 200 °C for the first, 117 °C for the second.

Compared with `Cc1cc(-c2cc(C)c(O)c(C)c2)cc(C)c1O`, `CCc1ccc2cc(O)c(O)cc2c1` is lower in melting point: 222 °C for the first, 149 °C for the second.

First: Cn1nnc2c1ccc(=O)n2C1OC(CO)C(O)C1O (stereo not given)
Second: CCOC(=O)c1c(C)n(OC)c2ccc3nonc3c12
The melting point of the first is higher: 211 °C for the first, 147 to 149 °C for the second.

First: O=c1c2c(oc3c1CCCC3)CCCC2
Second: C=C1CCCCC1
The melting point of the first is higher: 130 °C for the first, -107 °C for the second.

First: O=C(Cl)c1cnc2ccccc2n1
Second: COC(=O)c1cc2ccccc2s1
The melting point of the first is higher: 100 °C for the first, 70 °C for the second.

First: CCCCCCCC(N)P(=O)(O)O (stereo not given)
Second: CCCCCCCCCN
The melting point of the first is higher: 269 to 270 °C for the first, -1 °C for the second.

Compared with `COc1cc2c(c(O)c1OC)CNCC2`, `COc1cc([N+](=O)[O-])c(OC)cc1Cl` is lower in melting point: 188 °C for the first, 144 to 145 °C for the second.

First: Nc1ccc(Cl)cc1O
Second: Nc1c(F)ccc(Cl)c1F
The melting point of the first is higher: 152 to 157 °C for the first, 47 °C for the second.

First: FC(F)(F)c1cc(Cl)c(I)c(Br)c1
Second: FC(F)(F)c1ccc(Cl)cc1Cl
The melting point of the first is higher: 29 to 31 °C for the first, -26 °C for the second.

Compared with `COc1cc2ccc(=O)oc2c(O)c1O`, `COc1cc(C(=O)O)ccc1F` is lower in melting point: 231 °C for the first, 207 °C for the second.

First: Cc1ccc(C=CC(=O)O)cc1
Second: Cc1ccc(O)cc1
The melting point of the first is higher: 198 to 201 °C for the first, 35.5 °C for the second.

First: O=C1Cc2ccccc2O1
Second: O=C1Cc2ccccc2CO1
The melting point of the first is lower: 50 °C for the first, 82 to 83 °C for the second.

First: OC(CS)C(O)CS (stereo not given)
Second: CCCCC(N)C(=O)O (stereo not given)
The melting point of the first is lower: 83 °C for the first, 300 °C for the second.

First: O=C(CCCl)NCc1ccccc1
Second: OCc1cnc(S)n1Cc1ccccc1
The melting point of the first is lower: 94 °C for the first, 238 to 240 °C for the second.

Going from `Cc1c(C)c2c3ccccc3ccc2c2ccccc12` to `c1ccc2cc3cc4cc5ccccc5cc4cc3cc2c1`, the melting point rises from 129 °C to 300 °C.

First: O=C(Nc1ccc(Br)cc1)c1cc(Br)ccc1O
Second: Nc1ccc(NC(=O)c2ccc(N)cc2)cc1
The melting point of the first is higher: 242 °C for the first, 203 to 207 °C for the second.

First: CC(=O)c1ccccc1C(C)=O
Second: CC(=O)N(C(C)=O)c1ccccc1
The melting point of the first is higher: 40 °C for the first, 37.5 °C for the second.

Going from `CC(=O)N(C)C(=O)COC(=O)c1ccccc1` to `O=C(COC(=O)c1ccccc1)NC(CO)(CO)CO`, the melting point rises from 102 °C to 126 °C.

Going from `COC(=O)C1=C(C(=O)OC)C2(COC(=O)C(C)NC(C)=O)c3ccccc3C1c1ccccc12` (stereo not given) to `CCOC(=O)c1sc2sc(C(=O)OCC)c(NC(=O)c3ccccc3)c2c1NC(=O)c1ccccc1`, the melting point rises from 180 °C to 286 °C.

First: OCCN(CCO)c1ccccc1
Second: Cc1ccccc1CCC(=O)O
The melting point of the first is lower: 57 °C for the first, 104 to 106 °C for the second.

First: CCOC(=O)C1=C(C)NC(=O)NC1c1cccc(OC)c1O (stereo not given)
Second: CCOC(=O)c1cnc2c(c(C)nn2C)c1Oc1cc(Cl)cc(Cl)c1
The melting point of the first is higher: 209 °C for the first, 115 to 117 °C for the second.

First: C/C=C/C=C/C(=O)OC
Second: COC(=O)c1ccc2[nH]cnc2c1
The melting point of the first is lower: 15 °C for the first, 139 to 143 °C for the second.

First: O=C(O)c1cc(F)ccc1O
Second: O=C(O)c1ccc(O)c(O)c1O
The melting point of the first is lower: 179 to 182 °C for the first, 221 °C for the second.

Compared with `NC1=NN(c2ccccc2)C(=O)C1`, `CCC1(c2ccccc2)NC(=O)N(C)C1=O` (stereo not given) is lower in melting point: 210 to 215 °C for the first, 136 °C for the second.

Compared with `O=c1c(=O)c2ccccc12`, `O=C1OS(=O)(=O)c2ccccc21` is lower in melting point: 131 °C for the first, 130 °C for the second.

Compared with `O=c1[nH]c2scc(-c3ccccc3)c2c(=O)n1-c1ccccc1`, `O=C1OC(=O)c2cc3ccccc3cc21` is lower in melting point: 305 to 308 °C for the first, 249 °C for the second.

First: O=[N+]([O-])c1ccc2[nH]c3c(c2c1)CCN(Cc1ccccc1)C3
Second: O=[N+]([O-])c1cccc(SSc2cccc([N+](=O)[O-])c2)c1
The melting point of the first is higher: 213 to 214 °C for the first, 84 °C for the second.

First: Cn1cnc2ncnc(N)c21
Second: Cn1nc(C=O)cc1-c1ccco1
The melting point of the first is higher: 323 °C for the first, 62 to 64 °C for the second.

First: Cc1nc(-c2ccc(N=C=O)cc2)cs1
Second: OCc1ccc(-c2ccsc2)cc1
The melting point of the first is lower: 80 to 81 °C for the first, 152 to 154 °C for the second.

First: O=C(Oc1c(F)c(F)c(F)c(F)c1F)c1sccc1C1OCCO1
Second: O=C(Oc1c(F)c(F)c(F)c(F)c1F)c1cncnc1
The melting point of the first is lower: 55.5 to 59.5 °C for the first, 121 to 124 °C for the second.

Compared with `Cc1cc(C)c(N)c([N+](=O)[O-])c1`, `Cc1ccc(N)c(C(=O)NN)c1` is higher in melting point: 67 °C for the first, 133 to 134 °C for the second.

Compared with `Brc1ccc2ncsc2c1`, `Brc1ccc2c(c1)OCOC2` is lower in melting point: 53 to 54 °C for the first, 49 to 51 °C for the second.

Compared with `CC1CC(C)(C)CC(OOC(C)(C)C)(OOC(C)(C)C)C1` (stereo not given), `CC(=O)c1cc(C(C)(C)C)c(O)c(C(C)(C)C)c1` is higher in melting point: -20 °C for the first, 147 °C for the second.

Compared with `CCC(C(=O)NC(N)=O)c1ccccc1` (stereo not given), `CCC(=O)OC(C)c1ccccc1` (stereo not given) is lower in melting point: 162 °C for the first, -60 °C for the second.

First: O=C(c1ccccc1)N1CCCCC1
Second: OCc1cccnc1N1CCCC1
The melting point of the first is lower: 49 °C for the first, 74 to 76 °C for the second.

First: CN(C)C(=S)SSC(=S)N(C)C
Second: CC1CCC(C(C)C)C(OC(=O)C(C)O)C1 (single isomer, unassigned; (-))
The melting point of the first is higher: 156 °C for the first, 40 °C for the second.

First: COc1cc(C(c2ccc(C)s2)c2ccc(C)s2)c([N+](=O)[O-])cc1OC
Second: COc1cc2nnc(/C=C/C(C)=O)c(-c3ccc(C)o3)c2cc1OC
The melting point of the first is lower: 120 °C for the first, 209 to 210 °C for the second.

Compared with `O=C(O)Cn1c(=O)sc2cccc(Cl)c21`, `O=C(O)c1cc(F)c(F)cc1Cl` is lower in melting point: 193 °C for the first, 106 °C for the second.

Going from `O=C(O)CCCCc1ccc(O)cc1` to `CCCCCCc1ccc(O)cc1`, the melting point falls from 118 °C to 32 °C.

First: O=C1CNC(=S)N1
Second: O=C(O)c1ccc2c(c1)CCCN2
The melting point of the first is higher: 230 °C for the first, 168 to 170 °C for the second.

First: O=[N+]([O-])c1cc(C(F)(F)F)ccc1Oc1ccccc1Br
Second: Cc1ccc2nc(C(F)(F)F)cc(Cl)c2c1[N+](=O)[O-]
The melting point of the first is lower: 58 to 62 °C for the first, 119 to 121 °C for the second.

First: O=C1C(C(O)c2c(Cl)cccc2Cl)C(C(F)(F)F)=NN1c1ccccc1 (stereo not given)
Second: Oc1cc(C(F)(F)F)nc2ccc(Cl)cc12
The melting point of the first is lower: 196 °C for the first, 280 to 289 °C for the second.

Compared with `CCOC(=O)C1C(c2ccc(C)cc2)C(C(=O)OCC)C(O)(C(F)(F)F)NC1(O)C(F)(F)F` (stereo not given), `CC(=O)CSc1ccc(C)cc1` is higher in melting point: 93 °C for the first, 96 to 98 °C for the second.

Compared with `NC(=O)c1ccccn1`, `CCOC(=O)c1sc(-c2ccccn2)nc1CBr` is lower in melting point: 106 °C for the first, 102 °C for the second.

First: CC1(C)CC(NCCCCCCNC2CC(C)(C)NC(C)(C)C2)CC(C)(C)N1
Second: CCOC(=O)C(/C=C1\C(=O)C2(C)CCC1C2(C)C)(/C=C1\C(=O)C2(C)CCC1C2(C)C)CC(C)C (stereo not given)
The melting point of the first is lower: 64 °C for the first, 156 °C for the second.

First: CCCOc1ccccc1OCC(O)CO (stereo not given)
Second: C=Cc1ccccc1OC
The melting point of the first is higher: 70 °C for the first, 29 °C for the second.

First: NC(=O)C1CCNCC1
Second: COC1=C(Br)C(=O)C2(C)CCC1C2(C)C (stereo not given)
The melting point of the first is higher: 148 °C for the first, 104 °C for the second.

First: Cc1noc(-c2ccccc2)c1C=O
Second: O=C(O)c1cc(-c2ccccc2)n[nH]1
The melting point of the first is lower: 85 to 87 °C for the first, 250 °C for the second.

First: O=C1SC(Cl)(Cl)c2nc3c(cc21)C(=O)SC3(Cl)Cl
Second: Cc1nc(NC(=O)NS(=O)(=O)c2cccs2)nc(Cl)c1C
The melting point of the first is lower: 178 to 185 °C for the first, 201 to 203 °C for the second.

Compared with `CCCCCCCCCCCCCCCCCC(=O)OCCCC`, `CCCCCCCCCC(=O)OC(=O)CCCCCCCCC` is lower in melting point: 27 °C for the first, 24.7 °C for the second.

First: FC(F)(F)c1cc(CCl)cc(C(F)(F)F)c1
Second: NCc1cc(C(F)(F)F)cc(C(F)(F)F)c1
The melting point of the first is lower: 31 °C for the first, 57 °C for the second.

First: Nc1nn2c(C(F)(F)F)cc(=O)[nH]c2c1/N=N/c1cccc(F)c1
Second: N#Cc1ccc(C(F)(F)F)c(F)c1
The melting point of the first is higher: 305 to 306 °C for the first, 47 °C for the second.

First: Nc1n[nH]c(N)c1Cc1ccc(F)cc1
Second: OC(c1ccc(F)cc1)c1ccc(F)cc1
The melting point of the first is higher: 159 to 161 °C for the first, 47 °C for the second.

Compared with `O=Cc1ccc2nccn2c1`, `O=c1[nH]nc2ccccn12` is higher in melting point: 152 °C for the first, 234 °C for the second.

Compared with `CCCCCCC(C)CCC` (stereo not given), `CCCCCCCCCCC(=O)CCCCC` is higher in melting point: -77.5 °C for the first, 37 °C for the second.

`CC(=O)N1CCc2cc(S(=O)(=O)Cl)ccc21` and `CC(=O)Nc1ccc(CC(=O)O)cc1` cannot be ordered by melting point: 172 to 174 °C for the first, 173 °C for the second.

First: NS(=O)(=O)c1c(F)cc(F)cc1Br
Second: CCOC(=O)c1sc(SC)c(S(=O)(=O)C(C)C)c1N
The melting point of the first is lower: 126 °C for the first, 143 to 146 °C for the second.

Compared with `CC(NC(=O)COCCN1C(=O)c2ccccc2C1=O)C(=O)NC(CCC(=O)O)C(=O)O` (stereo not given), `Cc1cc(C(=O)NCc2ccc(Cl)cc2)no1` is lower in melting point: 192 to 195 °C for the first, 140 to 143 °C for the second.

First: C[C@@H]1C(=O)[C@]23C[C@H]1CC[C@H]2[C@@]1(CCC[C@@]2(C)COC(=O)[C@H]21)COC3=O
Second: BrCCOc1cccc2c1OCCO2
The melting point of the first is higher: 297 °C for the first, 85 to 86 °C for the second.

First: Cc1cc(F)ccc1CC#N
Second: Ic1ccc(I)nc1
The melting point of the first is lower: 26 °C for the first, 155 °C for the second.

First: Clc1ccc(Oc2ccc(Cl)cc2)cc1
Second: Brc1ccc(Oc2ccc(Br)c(Br)c2Br)c(Br)c1
The melting point of the first is lower: 30 °C for the first, 119 to 121 °C for the second.

`O=C1C=C2C(=CCOC2O)O1` (stereo not given) gave a melting point of 111 °C.
